Results published in DBAASP.
Values after ≈ are worked out from the molar mass of the structure shown. Values joined by “and” are separate entries in the source; they are usually repeats but may differ in a detail not shown here. Equal entries are not always repeated. One block for each compound: values may come before it.

How the values were obtained:
Test in all cases: ≥ marks a high value that may be exact or a test limit, other limits are often not marked, values filed in µg/mL are converted to µM
Bacillus thuringiensis = system: Bacillus thuringiensis
[1] = system: Salmonella enterica subsp. enterica serovar Typhimurium ATCC 14028
[2] = system: Staphylococcus aureus ATCC 29213
[3] = system: Candida albicans ATCC 18804
[4] = system: Klebsiella aerogenes ATCC 13048
Proteus mirabilis = system: Proteus mirabilis
[5] = system: Pseudomonas aeruginosa ATCC 27853
[6] = system: Staphylococcus aureus ATCC 25293
[7] = system: Pseudomonas aeruginosa ATCC 15442
[8] = system: Escherichia coli CCT 1371
[9] = system: Bacillus subtilis CCT 2471
[10] = system: Staphylococcus aureus ATCC 6538
[11] = system: Bacillus cereus ATCC 11778
[12] = system: Staphylococcus saprophyticus
[13] = system: Bacillus subtilis ATCC 6633
[14] = system: Staphylococcus epidermidis ATCC 12228
[15] = system: Staphylococcus aureus TK784
[16] = system: Staphylococcus aureus ATCC 6538P
[17] = system: Shigella dysenteriae ATCC 9752
[18] = system: Micrococcus luteus ATCC 10240
[19] = system: Escherichia coli ATCC 25922
[20] = system: Klebsiella pneumoniae ATCC 10031
[21] = system: Pseudomonas aeruginosa ATCC 19660
[22] = system: Staphylococcus aureus USA 300 LAC
Pseudomonas aeruginosa = system: Pseudomonas aeruginosa
[23] = system: Pseudomonas aeruginosa PAO1
Escherichia coli E423-17 = system: Escherichia coli E423-17
[24] = system: Staphylococcus aureus CUN 3792-99
[25] = system: Bordetella bronchiseptica CUN 11844-99
[26] = system: Pseudomonas aeruginosa CUN 4158-02
[27] = system: Stenotrophomonas maltophilia CUN 3998-00
[28] = system: Acinetobacter baumannii ATCC 19606
[29] = system: Staphylococcus aureus ATCC 43300
[30] = system: Staphylococcus aureus ATCC 25923
[31] = system: Staphylococcus aureus NCTC 8325
[32] = system: Candida albicans ATCC 90028
[33] = system: Klebsiella pneumoniae KK3 9904
[34] = system: Enterococcus faecalis ATCC 29212
[35] = system: Enterobacter cloacae HNTCC 53001
[36] = system: Staphylococcus epidermidis RP62A
[37] = system: Staphylococcus aureus T7/20
Candida krusei CK802/97 = system: Candida krusei CK802/97
Bacillus subtilis 168 = system: Bacillus subtilis 168
Staphylococcus aureus = system: Staphylococcus aureus
Escherichia coli B = system: Escherichia coli B
[38] = system: Candida glabrata CG196/98IDE

MIC [13]: 1.42 µM (≈ 2 µg/mL)
MIC [1]: 2.84 µM (≈ 4 µg/mL)
MIC [14]: 1.42 µM (≈ 2 µg/mL)
MIC [15]: 11.3 µM (≈ 16 µg/mL)
MIC [5]: 2.84 µM (≈ 4 µg/mL)
MIC [16]: 1.42 µM (≈ 2 µg/mL)
MIC [17]: 1.42 µM (≈ 2 µg/mL)
MIC [18]: 2.84 µM (≈ 4 µg/mL)
MIC [19]: 2.84 µM (≈ 4 µg/mL)
MIC [20]: 2.84 µM (≈ 4 µg/mL)
SMILES: CC(C)C[C@H](NC(=O)[C@H](CC(C)C)NC(=O)[C@H](CCCCN)NC(=O)[C@H](CCCCN)NC(=O)[C@H](CC(C)C)NC(=O)[C@H](CC(C)C)NC(=O)[C@H](CCCCN)NC(=O)[C@H](CCCCN)NC(=O)[C@@H](N)CC(C)C)C(=O)N[C@@H](CCCCN)C(=O)N[C@@H](Cc1c[nH]c2ccccc12)C(N)=O [LKKLLKKLLKW]

MIC [21]: ≥ 97.7 µM
MIC [22]: 4 µM (≈ 8.12 µg/mL)
MIC (Pseudomonas aeruginosa): 48.9 µM and 97.7 µM
MIC [23]: 48.9 µM and 97.7 µM
MIC (Escherichia coli E423-17): 5.66 µM and 4 µM
SMILES: CC[C@H](C)[C@H](NC(=O)[C@H](CCCNC(=N)N)NC(=O)[C@H](CCC(N)=O)NC(=O)[C@@H](NC(=O)[C@@H](NC(=O)[C@H](CCCNC(=N)N)NC(=O)[C@H](CCCCN)NC(=O)[C@@H](N)Cc1ccccc1)[C@@H](C)CC)C(C)C)C(=O)N[C@@H](CCCCN)C(=O)N[C@@H](CC(=O)O)C(=O)N[C@@H](Cc1ccccc1)C(=O)N[C@@H](CC(C)C)C(=O)N[C@@H](CCCNC(=N)N)C(=O)N[C@@H](CC(N)=O)C(=O)N[C@@H](CC(C)C)C(=O)N[C@H](C=O)C(C)C [FKRIVQRIKDFLRNLV]

MIC [24]: 24.1 µM (≈ 64 µg/mL)
MIC [5]: 24.1 µM (≈ 64 µg/mL)
MIC [25]: 24.1 µM (≈ 64 µg/mL)
MIC [26]: ≥ 48.2 µM
MIC [27]: ≥ 48.2 µM
MIC [28]: 24.1 µM (≈ 64 µg/mL)
MIC [19]: 24.1 µM (≈ 64 µg/mL)
MIC [29]: 12.1 µM (≈ 32 µg/mL)
MIC [30]: 24.1 µM (≈ 64 µg/mL)
SMILES: NCCCC[C@H](NC(=O)CNC(=O)[C@H](CCCCN)NC(=O)[C@H](Cc1ccccc1)NC(=O)[C@H](CCCCN)NC(=O)[C@H](Cc1c[nH]c2ccccc12)NC(=O)[C@H](CCCN=C(N)N)NC(=O)[C@H](Cc1ccccc1)NC(=O)[C@H](CCCN=C(N)N)NC(=O)[C@H](CCCN=C(N)N)NC(=O)[C@H](Cc1ccc(O)cc1)NC(=O)[C@H](CCCCN)NC(=O)[C@H](CCCCN)NC(=O)[C@H](CS)NC(=O)CN)C(=O)N[C@@H](Cc1ccccc1)C(=O)N[C@@H](Cc1c[nH]c2ccccc12)C(=O)N[C@@H](Cc1ccccc1)C(=O)N[C@@H](Cc1c[nH]c2ccccc12)C(N)=O [GCKKYRRFRWKFKGKFWFW]

MIC (Candida krusei CK802/97): 28 µM and 13 µM
MIC (Bacillus subtilis 168): 0.8 µM (≈ 1.15 µg/mL)
MIC (Staphylococcus aureus): 15 µM (≈ 21.6 µg/mL)
MIC (Escherichia coli B): 2.3 µM (≈ 3.32 µg/mL)
MIC (Pseudomonas aeruginosa): 13.1 µM (≈ 18.9 µg/mL)
MIC [38]: ≥ 87 µM
SMILES: CC[C@H](C)[C@H](NC(=O)[C@H](CC(C)C)NC(=O)[C@H](CCCCN)NC(=O)CNC(=O)[C@H](CC(C)C)NC(=O)[C@@H](NC(=O)[C@H](CCCCN)NC(=O)[C@H](CCCCN)NC(=O)[C@H](Cc1c[nH]c2ccccc12)NC(=O)[C@H](CCSC)NC(=O)CN)[C@@H](C)CC)C(=O)N[C@@H](CCCN=C(N)N)C(N)=O [GMWKKILGKLIR]

The next lines start with the compound.

SMILES: CC[C@H](C)[C@H](N)C(=O)N[C@@H](Cc1ccccc1)C(=O)NCC(=O)N[C@@H](C)C(=O)N[C@H](C(=O)N[C@@H](Cc1c[nH]c2ccccc12)C(=O)N[C@@H](CC(N)=O)C(=O)NCC(=O)N[C@H](C(=O)N[C@@H](CCCCN)C(=O)N[C@@H](CO)C(=O)N[C@@H](CC(C)C)C(=O)N[C@@H](Cc1ccccc1)C(=O)O)[C@@H](C)CC)[C@@H](C)CC [IFGAIWNGIKSLF]
MIC (Bacillus thuringiensis): 17.1 µM (≈ 25.1 µg/mL)
MIC [1]: 68.2 µM (≈ 100 µg/mL)
MIC [2]: 34.1 µM (≈ 50 µg/mL)
MIC [3]: 12.5 µM (≈ 18.3 µg/mL)
MIC [4]: ≥ 68.2 µM
MIC (Proteus mirabilis): ≥ 150 µM
MIC [5]: 68.3 µM (≈ 100 µg/mL)
MIC [6]: 0.7 µM (≈ 1.03 µg/mL)
MIC [7]: ≥ 150 µM
MIC [8]: 3.4 µM (≈ 4.98 µg/mL)
MIC [9]: 6.8 µM (≈ 9.97 µg/mL)
MIC [10]: 3.4 µM (≈ 4.98 µg/mL)
MIC [11]: ≥ 68.2 µM
MIC [12]: 0.7 µM (≈ 1.03 µg/mL)

SMILES: CSCC[C@H](NC(=O)[C@@H](NC(=O)[C@@H](NC(=O)[C@H](CC(C)C)NC(=O)[C@@H]1CCCN1C(=O)[C@H](CC(C)C)NC(=O)[C@@H](N)Cc1ccccc1)C(C)C)[C@@H](C)O)C(=O)N[C@@H](CC(C)C)C(=O)N[C@@H](CC(C)C)C(=O)NCC(=O)N[C@@H](CCCCN)C(=O)N[C@@H](CC(C)C)C(=O)N[C@@H](Cc1ccccc1)C(N)=O [FLPLVTMLLGKLF]
MIC [31]: 5 µM (≈ 7.45 µg/mL)
MIC [32]: ≥ 160 µM
MIC [33]: ≥ 80 µM
MIC [5]: 160 µM (≈ 239 µg/mL)
MIC [34]: 40 µM (≈ 59.6 µg/mL)
MIC [35]: ≥ 40 µM
MIC [19]: > 160 µM
MIC [36]: 10 µM (≈ 14.9 µg/mL)
MIC [37]: 10 µM (≈ 14.9 µg/mL)
